pIC50, pKd: −log10 of the molar value.
Experiments:
[1] = molecular target: human MLKL (full length) (Homo sapiens (Human), UniProt Q8NB16); experiment: KINOMEscan binding assay, human MLKL (full length); conditions: hMLKL, Table 25; read-out: MLKL (KD)
How it was run: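 KINOMEscan competition binding using kinase-tagged T7 phage or HEK-293-produced DNA-tagged protein captured on ligand beads, with eluted protein quantified by qPCR. Compounds were run as an 11-point 3-fold series, top 30,000 nM, in 1% DMSO. Kd was fitted with the Hill equation, slope fixed at −1.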

[2] = tested on: Immortalised Mouse Dermal Fibroblasts (MDFs); experiment: Cellular assay: inhibition of TSI induced necroptosis, CellTitre-Glo viability; conditions: Mus musculus, Fibroblast; MDF, 3 hours TSI cocktail, Table 27; read-out: Inhibition of TSI-induced necroptosis (IC50 cell-based assay) in MDF
How it was run: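 Immortalised mouse dermal fibroblasts (2200 cells/well) pretreated 30 min with compound, 10-point 1:3 series from 36 μM, 0.3% DMSO. Then 3 h at 37° C. with TNF (100 ng/ml), Smac mimetic (500 nM) and IDN-6556 (10 μM). CellTiter-Glo luminescence normalised to DMSO (100%) and DMSO+TSI (0%); IC50 from 4-parameter logistic fit.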

[3] = molecular target: endogenous MLKL in U937 (Homo sapiens (Human), UniProt Q8NB16); experiment: Degradation assay: endogenous MLKL in U937 (western blot); conditions: U937, 24 h incubation, read-out: Degradation of endogenous MLKL in U937 (DC50 cell-based assay)
endogenous MLKL in U937, sequence (Q8NB16 whole entry): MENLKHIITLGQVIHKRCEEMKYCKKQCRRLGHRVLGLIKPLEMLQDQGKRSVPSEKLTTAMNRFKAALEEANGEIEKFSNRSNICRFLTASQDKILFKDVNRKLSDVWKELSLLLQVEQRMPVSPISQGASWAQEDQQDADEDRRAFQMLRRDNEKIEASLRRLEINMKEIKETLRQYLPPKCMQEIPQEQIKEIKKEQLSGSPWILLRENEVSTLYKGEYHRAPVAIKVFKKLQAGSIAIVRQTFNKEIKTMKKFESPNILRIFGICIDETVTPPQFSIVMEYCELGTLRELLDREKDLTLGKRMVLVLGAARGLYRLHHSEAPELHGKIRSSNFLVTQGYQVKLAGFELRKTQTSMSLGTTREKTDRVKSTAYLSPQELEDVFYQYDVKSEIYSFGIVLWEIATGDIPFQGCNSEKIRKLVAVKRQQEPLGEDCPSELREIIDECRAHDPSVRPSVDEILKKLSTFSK
Description: Degradation Assay: Screening Compounds Procedure to Evaluate the Activity of Compounds in Degrading Endogenous MLKL in Human and Mouse Cell
The mouse dermal fibroblast (MDF) cell line was seeded the day before the experiment in a 24-well plate at a cell density of […] per well in a volume of 0.5 mL per well and left to attach overnight. The human monocyte cell line (U937) was seeded on the day of the experiment in a 24-well plate at a cell density of […] per well in a volume of 0.5 mL per well.
The compound was diluted in DMSO with a starting concentration of 10 mM and titrated stepwise with a dilution of 1:5. 0.5 μL of the compound dilution was added to the appropriate well to achieve a final concentration of 10; 2; 0.4; 0.08 and 0.016 μM. A DMSO only well was included as control.
The cells were incubated for 24 h in the presence of the compound at 37° C. and 10% CO2.
After the 24 h incubation period, the medium was removed and cells washed with 0.5 mL PBS. The cells were then lysed directly in 60 μL of 1×SDS gel loading buffer.
The cell lysate was heat-denatured at […] for 10 min. 10 μL of lysate per well were run on 18-well 4-15% Criterion TGX stain free gels (BIO-RAD). The proteins were then transferred onto nitrocellulose membrane with a wet transfer protocol in the Criterion Blotter (BIO-RAD).
Membranes were blocked with 5% skim milk in TBST. Primary antibody against MLKL (clone 3H1, MABC604 Merck) was used at 1:2000 dilution in TBST with 1% BSA and left shaking over night at 4° C. After washes with TBST, the membranes were incubated with goat anti-rat IgG HRP-conjugated antibody (Southern Biotech) in 1% skim milk TBST at 1:10000 dilution for 1 h at room temperature. After TBST washes the bands were imaged on the ChemiDoc MP Imaging System (BIO-RAD) with Immobilion Western Chemiluminescent HRP Substrate Forte (Millipore). The loading control GAPDH was probed for with rabbit anti-GAPDH (CST 14C10) at 1:2000 dilution in 1% BSA TBST over night at 4° C. TBST washes were followed by incubation with goat anti-rabbit IgG HRP-conjugated antibody (Southern Biotech) in 1% skim milk TBST at 1:10000 dilution for 1 h at room temperature followed by TBST washes. The signal was detected as described above.
The band intensity was measured in the ImageLab Software (BIO-RAD) and the MLKL values adjusted for loading with GAPDH. The percentage of degradation was calculated by normalizing the compound treated values to the DMSO only control.

[4] = molecular target: endogenous MLKL in MDF (Mus musculus (Mouse), UniProt Q9D2Y4); experiment: Degradation assay: endogenous MLKL in MDF (western blot); conditions: MDF cells, 24 h incubation with compound, MLKL adjusted for loading with GAPDH, normalized to DMSO only control, read-out: Degradation of endogenous MLKL in MDF (DC50 cell-based assay)
endogenous MLKL in MDF, sequence (Q9D2Y4 whole entry): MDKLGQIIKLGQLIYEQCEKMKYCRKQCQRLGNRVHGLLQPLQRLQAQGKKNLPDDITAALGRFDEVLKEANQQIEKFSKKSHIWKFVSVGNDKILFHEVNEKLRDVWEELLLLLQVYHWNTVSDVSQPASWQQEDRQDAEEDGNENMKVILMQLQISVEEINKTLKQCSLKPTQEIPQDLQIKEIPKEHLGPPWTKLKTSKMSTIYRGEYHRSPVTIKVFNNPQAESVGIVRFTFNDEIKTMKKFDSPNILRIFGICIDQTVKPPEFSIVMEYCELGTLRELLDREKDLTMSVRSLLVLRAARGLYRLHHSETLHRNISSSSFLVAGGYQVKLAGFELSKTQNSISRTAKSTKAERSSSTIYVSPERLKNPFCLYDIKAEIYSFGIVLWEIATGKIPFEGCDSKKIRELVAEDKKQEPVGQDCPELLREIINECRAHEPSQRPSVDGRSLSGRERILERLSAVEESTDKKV
How it was run: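 MDF (seeded the day before) or U937 cells were treated 24 h at 37 °C, 10% CO2 with compound at 10, 2, 0.4, 0.08 and 0.016 μM final. Endogenous MLKL was quantified by western blot (anti-MLKL 3H1), normalized to GAPDH. Percent degradation was taken relative to DMSO control.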

human MLKL (full length), sequence (Q8NB16 whole entry): as the sequence (Q8NB16 whole entry) above

| Structure (SMILES) | pKd [1] | pIC50 [2] | DC50 [3] [µM] | DC50 [4] [µM] |
| --- | --- | --- | --- | --- |
| C[C@H](Oc1cc(-c2nn(C)c3c(-c4cnn(C5CCN(C[C@H]6C[C@H](Nc7cccc8c7C(=O)N(C7CCC(=O)NC7=O)C8=O)C6)CC5)c4)cnc(N)c23)ccc1NS(=O)(=O)C(F)F)c1ccc(F)cc1 (stereo partly drawn) [Compound 1108, N-(4-{4-amino-1-methyl-7-[1-(1-{[(trans)-3-{[2-(2,6-dioxopiperidin-3-yl)-1,3-dioxo-2,3-dihydro-1H-isoindol-4-yl]amino}cyclobutyl]methyl}piperidin-4-yl)-1H-pyrazol-4-yl]-1H-pyrazolo[4,3-c]pyridin-3-yl}-2-[(1S)-1-(4-fluorophenyl)ethoxy]phenyl)-1,1-difluoromethane-sulfonamide] | > 8.00 | > 6.00 | 1 to 10 | < 1 |
| C[C@H](Oc1cc(-c2nn(C)c3c(-c4cnn(C5CCN(C(=O)COc6ccc7c(c6)C(=O)N(C6CCC(=O)NC6=O)C7=O)CC5)c4)cnc(N)c23)ccc1NS(=O)(=O)C(F)F)c1ccc(F)cc1 (some centres unmarked) [Compound 1085, N-[4-(4-amino-7-{1-[1-(2-{[2-(2,6-dioxopiperidin-3-yl)-1,3-dioxo-2,3-dihydro-1H-isoindol-5-yl]oxy}acetyl)piperidin-4-yl]-1H-pyrazol-4-yl}-1-methyl-1H-pyrazolo[4,3-c]pyridin-3-yl)-2-[(1 S)-1-(4-fluorophenyl)ethoxy]phenyl]-1,1-difluoromethanesulfonamide] | > 8.00 | > 6.00 | < 1 | 1 to 10 |
| C[C@H](Oc1cc(-c2nn(C)c3c(-c4cnn(C5CCN(C(=O)C6CC7(CCN(c8cccc9c8C(=O)N(C8CCC(=O)NC8=O)C9=O)CC7)C6)CC5)c4)cnc(N)c23)ccc1NS(=O)(=O)C(F)F)c1ccc(F)cc1 (stereo partly drawn) [Compound 1069, N-(4-{4-amino-7-[1-(1-{7-[2-(2,6-dioxopiperidin-3-yl)-1,3-dioxo-2,3-dihydro-1H-isoindol-4-yl]-7-azaspiro[3.5]nonane-2-carbonyl}piperidin-4-yl)-1H-pyrazol-4-yl]-1-methyl-1H-pyrazolo[4,3-c]pyridin-3-yl}-2-[(1S)-1-(4-fluorophenyl)ethoxy]phenyl)-1,1-difluoromethanesulfonamide] | 6.00 to 8.00 | > 6.00 | < 1 | < 1 |
| C[C@H](Oc1cc(-c2nn(C)c3c(-c4cnn(C5CCN(C(=O)CC6CCCN(c7cccc8c7C(=O)N(C7CCC(=O)NC7=O)C8=O)C6)CC5)c4)cnc(N)c23)ccc1NS(=O)(=O)C(F)F)c1ccc(F)cc1 (stereo partly drawn) [Compound 1073, N-[4-(4-amino-7-{1-[1-(2-{1-[1,3-dioxo-2-(2-oxo-piperidin-3-2,3-yl)-dihydro-1H-isoindol-4-yl]piperidin-3-yl}acetyl)piperidin-4-yl]-1H-pyrazol-4-yl}-1-methyl-1H-pyrazolo[4,3-c]pyridin-3-yl)-2-[(1S)-1-(4-fluorophenyl)ethoxy]phenyl]-1,1-difluoromethanesulfonamide] | 6.00 to 8.00 | > 6.00 | < 1 | < 1 |
| C[C@H](Oc1cc(-c2nn(C)c3c(-c4cnn(C5CCN(C(=O)CC6CN(c7cccc8c7C(=O)N(C7CCC(=O)NC7=O)C8=O)CCO6)CC5)c4)cnc(N)c23)ccc1NS(=O)(=O)C(F)F)c1ccc(F)cc1 (stereo partly drawn) [Compound 1081, N-[4-(4-amino-7-{1-[1-(2-{4-[2-(2,6-dioxopiperidin-3-yl)-1,3-dioxo-2,3-dihydro-1H-isoindol-4-yl]morpholin-2-yl}acetyl)piperidin-4-yl]-1H-pyrazol-4-yl}-1-methyl-1H-pyrazolo[4,3-c]pyridin-3-yl)-2-[(1S)-1-(4-fluorophenyl)ethoxy]phenyl]-1,1-difluoromethanesulfonamide] | > 8.00 | > 6.00 | < 1 | < 1 |
